Where “and” joins values, the source holds several entries; their conditions need not be identical. Identical values can stand only once. Calls of active or inactive are those of the source.
Assays:
[1] = target: Mu-type opioid receptor (Homo sapiens, UniProt P35372); type: functional, cell-based;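 also: U2OS cells with beta-arrestin recruitment to OPRM1 by beta-gal complementation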
[2] = target: 5-hydroxytryptamine receptor 2A (Mus musculus, UniProt P35363); type: functional, cell-based;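 also: CHO-K1 cells with tagged receptor and beta-arrestin; agonist potency measured as compound-induced activation of the receptor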
[3] = target: Paired box protein Pax-8 (Homo sapiens, UniProt Q06710); assay: inhibitors of PAX8-driven TPO luciferase reporter, dose response, RMG-I cells, cherry-pick (AID 687027); type: functional, cell-based;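 also: luciferase reporter driven by Pax8 target thyroperoxidase promoter measured by SteadyGlo luminescence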
[4] = inhibitors of CMV-promoter luciferase reporter, dose response, counter-screen for Pax8 inhibitor project, cell-based, HEK293, luminescence, dry powder (AID 743020); type: functional
[5] = HepG2 cell cytotoxicity, dose response, cytotoxicity control, cherry-picks, set 5 (AID 1053118); type: functional, cell-based
[6] = target: T1, Beta-2 adrenergic receptor (Homo sapiens, UniProt P07550); assay: Dose response for HTS for Beta-2AR agonists via FAP method from Powderset1.; type: functional
[7] = target: T1, Beta-2 adrenergic receptor; assay: beta2AR agonists driving receptor internalization, dose response, cell-based, FAP fluorogen, flow cytometry, cherry pick 1 (AID 588763); type: functional
[8] = target: Tyrosine-protein phosphatase non-receptor type 5 (Homo sapiens, UniProt P54829); assay: STEP phosphatase inhibitors, confirmation, biochemical, fluorescence intensity, uHTS hits (AID 602372); type: functional; details: read-out: IC50_Mean
[9] = target: Tyrosine-protein phosphatase non-receptor type 11 (Homo sapiens, UniProt Q06124); assay: SHP2 phosphatase inhibition, dose response, selectivity assay for STEP inhibitor project, biochemical (AID 602367); type: functional; details: read-out: IC50_Mean
[10] = target: Dual specificity protein phosphatase 3 (Homo sapiens, UniProt P51452); assay: VHR phosphatase inhibition, dose response, selectivity assay for STEP inhibitor project, biochemical (AID 602374); type: functional; details: read-out: IC50_Mean
[11] = target: T2, Tyrosine-protein phosphatase non-receptor type 22 (Homo sapiens, UniProt Q9Y2R2); assay: PTPN22 phosphatase inhibition, dose response, selectivity assay for STEP inhibitor project, biochemical (AID 624241); type: functional
T2 sequence (Q9Y2R2 whole entry): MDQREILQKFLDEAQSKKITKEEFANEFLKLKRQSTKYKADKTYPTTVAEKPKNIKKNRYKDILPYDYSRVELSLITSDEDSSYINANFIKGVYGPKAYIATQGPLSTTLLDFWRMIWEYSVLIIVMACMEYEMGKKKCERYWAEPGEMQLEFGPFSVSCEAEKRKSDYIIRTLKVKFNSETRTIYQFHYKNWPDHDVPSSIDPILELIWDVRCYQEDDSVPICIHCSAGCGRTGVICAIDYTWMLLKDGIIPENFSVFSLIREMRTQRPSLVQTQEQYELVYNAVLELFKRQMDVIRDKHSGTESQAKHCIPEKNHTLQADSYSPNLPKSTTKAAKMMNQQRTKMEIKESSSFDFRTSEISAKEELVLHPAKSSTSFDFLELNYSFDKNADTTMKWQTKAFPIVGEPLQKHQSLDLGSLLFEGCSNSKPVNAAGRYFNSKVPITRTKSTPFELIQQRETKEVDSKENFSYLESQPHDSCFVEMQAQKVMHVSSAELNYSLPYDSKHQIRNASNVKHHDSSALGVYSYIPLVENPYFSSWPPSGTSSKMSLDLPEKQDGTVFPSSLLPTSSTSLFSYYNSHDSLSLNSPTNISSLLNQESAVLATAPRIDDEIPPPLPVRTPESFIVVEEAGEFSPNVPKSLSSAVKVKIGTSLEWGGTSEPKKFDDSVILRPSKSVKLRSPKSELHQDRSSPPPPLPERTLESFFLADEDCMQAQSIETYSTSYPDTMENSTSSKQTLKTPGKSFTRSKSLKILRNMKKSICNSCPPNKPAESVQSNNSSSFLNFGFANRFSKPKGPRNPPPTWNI

[12] = HEK293T cytotoxicity, dose response, cytotoxicity control for miR-122 modulator project, cell-based, inhibitor set, cherry-pick, set 2 (AID 720697); type: functional
[13] = target: Galanin receptor type 3 (Homo sapiens, UniProt O60755); assay: Fluorescence-based cell-based primary high throughput dose response assay to identify antagonists of the Galanin Receptor 3 (GalR3).; type: functional
[14] = cells; type: functional, cell-based; details: HEK-CNG
[15] = target: Broad substrate specificity ATP-binding cassette transporter ABCG2 (Homo sapiens, UniProt Q9UNQ0); assay: ABCG2 efflux pump inhibitors, dose response, Ig-MXP3 cells, flow cytometry (AID 1690); type: functional
[16] = target: Long-chain-fatty-acid--AMP ligase FadD28 (Mycobacterium tuberculosis, UniProt P9WQ59); assay: Fluorescence polarization aasay to screen for inhibitors that compete for the binding of FadD28 to a bisubstrate Measured in Biochemical System Using Plate Reader - 2147-01_Inhibitor_Dose_CherryPick_Activity.; type: functional, Mycobacterium tuberculosis H37Rv
[17] = target: T3, Polyadenylate-binding protein 1 (Homo sapiens, UniProt P11940); assay: PABP1 MLLE–PAM2 binding inhibitor potency, dose response, biochemical, fluorescence polarization, FITC-PAM2 peptide (AID 602259); type: functional; details: read-out: IC50_Mean
[18] = target: T3, Polyadenylate-binding protein 1; assay: PABP1 MLLE–PAM2 interaction inhibitors, dose response, miRNA deadenylation inhibitor project, biochemical, fluorescence polarization, Cy5-PAM2 peptide, secondary (AID 602260); type: functional; details: read-out: IC50_Mean
[19] = target: Botulinum neurotoxin type F (Clostridium botulinum, UniProt P30996); assay: High-throughput multiplex microsphere dose response for inhibitors of toxin protease, specifically Botulinum neurotoxin light chain F protease, compounds from Cherry Pick 02.; type: functional; details: read-out: EC50_MICROM
Sequence of Botulinum neurotoxin type F (P30996 1-436 limits assumed): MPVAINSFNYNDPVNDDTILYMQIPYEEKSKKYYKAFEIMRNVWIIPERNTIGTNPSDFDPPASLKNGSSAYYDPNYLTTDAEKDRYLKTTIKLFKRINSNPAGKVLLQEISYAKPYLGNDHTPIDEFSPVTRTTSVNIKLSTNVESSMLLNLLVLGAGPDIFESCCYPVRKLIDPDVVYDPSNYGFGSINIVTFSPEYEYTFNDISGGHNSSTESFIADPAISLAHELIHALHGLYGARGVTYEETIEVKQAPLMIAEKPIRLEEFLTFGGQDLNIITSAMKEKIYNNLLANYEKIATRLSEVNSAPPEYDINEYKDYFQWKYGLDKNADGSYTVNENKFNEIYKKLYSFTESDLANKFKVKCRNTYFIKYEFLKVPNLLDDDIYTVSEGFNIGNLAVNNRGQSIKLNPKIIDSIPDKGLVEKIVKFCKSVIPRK

T1 sequence (P07550 whole entry): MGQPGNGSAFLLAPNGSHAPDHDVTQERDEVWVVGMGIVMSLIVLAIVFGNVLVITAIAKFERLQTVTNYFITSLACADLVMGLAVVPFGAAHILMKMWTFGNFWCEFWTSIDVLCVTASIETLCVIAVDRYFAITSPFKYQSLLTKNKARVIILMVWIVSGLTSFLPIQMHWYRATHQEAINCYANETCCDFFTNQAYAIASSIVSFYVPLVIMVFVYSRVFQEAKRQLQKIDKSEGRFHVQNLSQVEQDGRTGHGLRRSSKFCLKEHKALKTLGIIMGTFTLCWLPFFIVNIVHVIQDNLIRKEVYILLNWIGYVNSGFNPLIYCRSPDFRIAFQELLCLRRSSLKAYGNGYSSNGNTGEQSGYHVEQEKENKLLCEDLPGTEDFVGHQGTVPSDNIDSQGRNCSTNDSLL
T3 sequence (P11940 whole entry): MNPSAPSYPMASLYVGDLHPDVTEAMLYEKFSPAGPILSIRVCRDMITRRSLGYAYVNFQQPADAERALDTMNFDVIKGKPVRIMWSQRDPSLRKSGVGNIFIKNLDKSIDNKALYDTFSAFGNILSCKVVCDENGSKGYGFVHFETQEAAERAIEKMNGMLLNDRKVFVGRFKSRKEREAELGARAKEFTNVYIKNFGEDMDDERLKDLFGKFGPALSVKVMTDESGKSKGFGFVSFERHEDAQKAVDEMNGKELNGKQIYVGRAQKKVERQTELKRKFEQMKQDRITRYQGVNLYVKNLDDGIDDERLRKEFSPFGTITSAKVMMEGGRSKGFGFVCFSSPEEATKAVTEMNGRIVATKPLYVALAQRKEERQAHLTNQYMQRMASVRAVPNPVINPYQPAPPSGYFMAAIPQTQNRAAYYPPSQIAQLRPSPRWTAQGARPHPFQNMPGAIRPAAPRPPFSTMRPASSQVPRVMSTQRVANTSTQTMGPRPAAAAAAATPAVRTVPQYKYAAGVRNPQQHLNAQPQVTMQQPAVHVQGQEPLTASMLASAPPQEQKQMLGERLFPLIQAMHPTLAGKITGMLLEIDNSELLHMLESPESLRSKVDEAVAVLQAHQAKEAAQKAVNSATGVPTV
Sequence of Paired box protein Pax-8 (Q06710 whole entry): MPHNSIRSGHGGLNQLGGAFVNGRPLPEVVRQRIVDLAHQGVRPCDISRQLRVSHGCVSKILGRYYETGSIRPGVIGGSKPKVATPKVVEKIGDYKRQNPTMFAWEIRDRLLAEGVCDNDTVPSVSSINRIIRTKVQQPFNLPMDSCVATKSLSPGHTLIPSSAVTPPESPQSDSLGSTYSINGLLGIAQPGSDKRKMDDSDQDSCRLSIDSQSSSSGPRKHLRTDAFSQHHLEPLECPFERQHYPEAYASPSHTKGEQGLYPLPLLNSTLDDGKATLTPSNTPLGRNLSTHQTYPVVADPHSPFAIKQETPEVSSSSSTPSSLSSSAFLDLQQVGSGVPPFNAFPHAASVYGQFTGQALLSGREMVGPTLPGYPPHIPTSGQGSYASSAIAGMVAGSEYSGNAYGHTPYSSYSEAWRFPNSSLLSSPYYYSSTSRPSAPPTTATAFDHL
Sequence of Long-chain-fatty-acid--AMP ligase FadD28 (P9WQ59 whole entry): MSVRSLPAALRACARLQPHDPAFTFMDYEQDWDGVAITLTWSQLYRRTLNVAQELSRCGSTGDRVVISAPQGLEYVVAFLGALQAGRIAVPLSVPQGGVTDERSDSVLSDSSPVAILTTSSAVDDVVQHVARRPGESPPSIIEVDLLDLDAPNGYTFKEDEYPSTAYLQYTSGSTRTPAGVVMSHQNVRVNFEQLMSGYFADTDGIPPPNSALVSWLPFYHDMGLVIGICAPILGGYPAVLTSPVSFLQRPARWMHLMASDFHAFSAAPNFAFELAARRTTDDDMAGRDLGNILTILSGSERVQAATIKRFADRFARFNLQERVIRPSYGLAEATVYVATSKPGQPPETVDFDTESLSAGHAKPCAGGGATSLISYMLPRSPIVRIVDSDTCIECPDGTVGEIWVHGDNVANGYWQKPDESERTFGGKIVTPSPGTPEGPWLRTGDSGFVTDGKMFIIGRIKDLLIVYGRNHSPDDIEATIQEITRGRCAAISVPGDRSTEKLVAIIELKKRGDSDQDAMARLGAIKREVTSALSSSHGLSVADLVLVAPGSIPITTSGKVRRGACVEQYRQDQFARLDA
Sequence of Mu-type opioid receptor (P35372 whole entry): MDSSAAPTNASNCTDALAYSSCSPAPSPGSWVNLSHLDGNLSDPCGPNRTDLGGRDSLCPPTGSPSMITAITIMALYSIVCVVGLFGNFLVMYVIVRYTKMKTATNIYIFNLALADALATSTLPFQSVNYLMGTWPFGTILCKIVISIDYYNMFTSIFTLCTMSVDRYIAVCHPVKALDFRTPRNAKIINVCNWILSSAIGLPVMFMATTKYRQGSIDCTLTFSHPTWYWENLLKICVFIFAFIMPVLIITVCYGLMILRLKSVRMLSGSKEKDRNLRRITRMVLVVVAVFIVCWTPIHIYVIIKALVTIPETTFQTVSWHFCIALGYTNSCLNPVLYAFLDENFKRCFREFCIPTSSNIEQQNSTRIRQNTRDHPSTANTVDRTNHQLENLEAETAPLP
Sequence of Galanin receptor type 3 (O60755 whole entry): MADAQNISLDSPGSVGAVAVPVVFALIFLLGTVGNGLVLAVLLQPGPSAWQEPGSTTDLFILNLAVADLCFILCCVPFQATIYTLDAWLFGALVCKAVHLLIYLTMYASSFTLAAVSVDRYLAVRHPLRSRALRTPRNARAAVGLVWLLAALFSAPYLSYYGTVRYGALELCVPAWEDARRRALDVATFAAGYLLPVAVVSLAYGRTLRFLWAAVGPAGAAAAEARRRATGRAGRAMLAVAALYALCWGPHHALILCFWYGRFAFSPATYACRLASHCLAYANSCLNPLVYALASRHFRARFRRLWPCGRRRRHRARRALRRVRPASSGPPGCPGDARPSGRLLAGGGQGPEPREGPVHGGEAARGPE
Sequence of Tyrosine-protein phosphatase non-receptor type 5 (P54829 whole entry): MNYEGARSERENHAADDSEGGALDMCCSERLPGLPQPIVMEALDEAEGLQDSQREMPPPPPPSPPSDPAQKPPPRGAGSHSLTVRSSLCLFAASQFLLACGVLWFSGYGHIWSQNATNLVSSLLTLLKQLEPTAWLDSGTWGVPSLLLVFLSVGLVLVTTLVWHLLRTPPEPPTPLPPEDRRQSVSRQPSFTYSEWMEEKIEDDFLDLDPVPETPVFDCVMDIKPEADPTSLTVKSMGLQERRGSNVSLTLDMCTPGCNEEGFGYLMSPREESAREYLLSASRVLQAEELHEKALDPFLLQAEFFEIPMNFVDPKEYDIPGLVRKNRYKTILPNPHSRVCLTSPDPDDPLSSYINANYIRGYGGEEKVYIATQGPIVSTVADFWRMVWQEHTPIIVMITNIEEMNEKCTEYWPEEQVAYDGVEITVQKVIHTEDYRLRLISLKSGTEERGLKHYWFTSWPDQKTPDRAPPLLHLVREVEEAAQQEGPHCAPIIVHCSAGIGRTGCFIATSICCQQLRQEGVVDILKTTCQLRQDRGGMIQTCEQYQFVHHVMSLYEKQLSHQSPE
Sequence of 5-hydroxytryptamine receptor 2A (P35363 whole entry): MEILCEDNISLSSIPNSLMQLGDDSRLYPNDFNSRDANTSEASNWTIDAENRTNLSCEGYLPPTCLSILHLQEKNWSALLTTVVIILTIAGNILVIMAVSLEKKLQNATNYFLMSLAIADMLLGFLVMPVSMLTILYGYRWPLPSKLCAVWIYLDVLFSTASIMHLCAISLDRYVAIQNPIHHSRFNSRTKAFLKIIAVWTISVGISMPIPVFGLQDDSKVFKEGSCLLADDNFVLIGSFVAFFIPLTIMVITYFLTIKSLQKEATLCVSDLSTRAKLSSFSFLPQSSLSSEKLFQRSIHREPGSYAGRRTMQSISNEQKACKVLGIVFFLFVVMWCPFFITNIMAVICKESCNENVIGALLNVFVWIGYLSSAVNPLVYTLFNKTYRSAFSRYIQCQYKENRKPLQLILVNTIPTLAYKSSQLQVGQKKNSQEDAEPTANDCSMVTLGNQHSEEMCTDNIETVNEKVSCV
Sequence of Broad substrate specificity ATP-binding cassette transporter ABCG2 (Q9UNQ0 whole entry): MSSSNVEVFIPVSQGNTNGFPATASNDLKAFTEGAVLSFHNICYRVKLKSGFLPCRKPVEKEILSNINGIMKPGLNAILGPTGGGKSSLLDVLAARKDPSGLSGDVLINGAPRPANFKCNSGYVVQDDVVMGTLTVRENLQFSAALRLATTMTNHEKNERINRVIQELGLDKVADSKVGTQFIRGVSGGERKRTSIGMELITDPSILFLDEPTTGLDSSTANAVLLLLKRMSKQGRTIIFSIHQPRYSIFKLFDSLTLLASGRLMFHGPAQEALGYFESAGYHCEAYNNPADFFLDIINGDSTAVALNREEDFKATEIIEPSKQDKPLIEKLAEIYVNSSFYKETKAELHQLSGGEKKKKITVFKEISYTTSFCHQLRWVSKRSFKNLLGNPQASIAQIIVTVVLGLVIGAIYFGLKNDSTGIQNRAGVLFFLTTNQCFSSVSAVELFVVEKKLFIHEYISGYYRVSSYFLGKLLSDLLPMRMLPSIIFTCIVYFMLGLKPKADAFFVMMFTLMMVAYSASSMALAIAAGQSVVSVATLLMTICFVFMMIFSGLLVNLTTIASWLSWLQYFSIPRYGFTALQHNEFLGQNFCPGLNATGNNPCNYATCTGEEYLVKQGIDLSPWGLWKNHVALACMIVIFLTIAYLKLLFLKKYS

Clc1ccc(CN2CCN(c3ncccn3)CC2)cc1Cl
EC50 [1]: 92.5 µM (inactive)
EC50 [2]: 0.424 µM (active)

Cc1ccc(S(=O)(=O)CCC(=O)c2ccc(F)cc2)cc1
AC50 [3]: 11.3 µM (active)
AC50 [4]: 27.9 µM (active)

Cc1ccc(N(CC(=O)NCc2ccco2)S(=O)(=O)c2ccccc2)cc1
AC50 [5]: > 52 µM (inactive)

Cc1ccc(S(=O)(=O)N(C)CC(=O)N2CCN(c3ccccn3)CC2)cc1
EC50 [6]: 0.002 µM (active)
EC50 [7]: 167 nM (active) and 60.7 nM (active)

Cc1c(C)c2ccc(OCC(=O)Nc3ccc(S(N)(=O)=O)cc3)c(C)c2oc1=O
IC50 [8]: 22.9 µM (inactive)
IC50 [9]: 6.82 µM (active)
IC50 [10]: 10.8 µM (active)
IC50 [11]: 44.9 µM (inactive)

Cc1nc(O)c(C#N)cc1-c1ccccc1
AC50 [12]: 2.43 µM (active)
IC50 [13]: 5.68 µM (active)
EC50 [14]: > 29.9 µM (inactive)

O=[N+]([O-])c1ccc(Nc2nc(Cl)nc(NCCO)n2)cc1
EC50 [15]: 4.63 µM (active)

COc1ccc(NC(=O)CSc2ccc([N+](=O)[O-])cc2)cc1S(=O)(=O)N1CCOCC1
AC50 [16]: 24.7 µM (active)
IC50 [17]: > 66 µM (inactive)
IC50 [18]: > 66 µM (inactive)

CN(CC(=O)NC1CCN(Cc2ccccc2)CC1)S(=O)(=O)c1ccc(Cl)cc1
EC50 [19]: > 20 µM (inactive)
